Data published in patent publication US20190388490A1, “PLANT EXTRACTIONS, COMPOSITIONS CONTAINING SAME, AND USES THEREOF” (priority 2010, published 2019).

Test: Free radical scavenging by ESR with DPPH
Conditions: 100 μg mixed with alcohol solution of DPPH for 2 minutes
Procedure: The free radical scavenging capacity of the Bacopa monniera extract product was evaluated using spectrophotometric and electron spin resonance (ESR) techniques. ESR is considered to be the least ambiguous method for the detection of free radicals. 2,2-Diphenyl -1-picrylhydrazyl (DPPH) was used as a stable free radical. An alcohol solution of DPPH was mixed with 100 μg of a Bacopa monniera extract product for 2 minutes and then ESR measurements were conducted. Quercetine was used as a positive control for scavenging the free radicals.

SMILES: O=c1c(O)c(-c2ccc(O)c(O)c2)oc2cc(O)cc(O)c12 [quercetine, Quercetine]
- effect on DPPH free radical ESR peak: slight change in peak height
